In ChEMBL document CHEMBL4043254, “Discovery of potential antiausterity agents from the Japanese cypress Chamaecyparis obtusa” (2017):
Activity calls are given as the source filed them. The calls are words filed in the database; no cut-off is given here.

What was measured:
PSN1 = experiment: Antiausteritic activity against human PSN1 cells in nutrient-deprived medium measured after 24 hrs by WST8 assay; type: functional
[1] = Antiausteritic activity against human KLM1 cells in nutrient-deprived medium measured after 24 hrs by WST8 assay; type: functional
PANC-1 [2] = experiment: Antiausteritic activity against human PANC1 cells in nutrient-deprived medium measured after 24 hrs by WST8 assay; type: functional
MIA PaCa-2 = experiment: Antiausteritic activity against human MIAPaCa2 cells in nutrient-deprived medium measured after 24 hrs by WST8 assay; type: functional
CAPAN-1 = experiment: Antiausteritic activity against human Capan1 cells in nutrient-deprived medium measured after 24 hrs by WST8 assay; type: functional
[3] = target: RAC-alpha serine/threonine-protein kinase (Homo sapiens) (UniProt P31749); experiment: Inhibition of AKT in human PANC1 cells assessed as reduction in mTOR phosphorylation at Ser2448 residue measured after 3 hrs under nutrient deprived condition by Western blot analysis; type: cell-based
PANC-1 [4] = experiment: Induction of morphological changes in human PANC1 cells assessed as increase in dead cells after 24 hrs by ethidium bromide/acridine orange staining based inverted microscopic analysis; type: functional, cell-based
PANC-1 [5] = experiment: Induction of morphological changes in human PANC1 cells assessed as nuclear fragmentation at 25 to 50 uM after 24 hrs by Hoechst 33342/propidium iodide staining based inverted microscopic analysis; type: functional, cell-based
PANC-1 [6] = experiment: Antiausteritic activity against human PANC1 cells assessed as reduction in cell migration at 50 uM under nutrient-deprived medium measured at 5 mins interval for 30 mins by live cell imaging analysis; type: functional, cell-based
PANC-1 [7] = experiment: Antiausteritic activity against human PANC1 cells assessed as cell death at 50 uM under nutrient-deprived medium measured at 5 mins interval for 8 hrs by live cell imaging analysis; type: functional, cell-based
[8] = target: RAC-alpha serine/threonine-protein kinase (Homo sapiens) (UniProt P31749); experiment: Inhibition of AKT phosphorylation at Ser473 residues in human PANC1 cells at 50 uM measured within 3 hrs under nutrient deprived condition by Western blot analysis; type: cell-based
PANC-1 [9] = experiment: Induction of autophagy in human PANC1 cells assessed as increase in LC3-2 expression after 3 hrs under nutrient deprived medium by Western blot analysis; type: functional, cell-based
PANC-1 [10] = experiment: Antiausteritic activity against human PANC1 cells assessed as decrease in cell index by measuring cell death at 50 uM under nutrient-deprived medium measured at 15 secs interval for 4 hrs by real time cell analysis; type: functional, cell-based
PANC-1 [11] = experiment: Antiausteritic activity against human PANC1 cells assessed as normalized cell index by measuring cell growth inhibition at 25 uM under nutrient-deprived medium measured at 15 secs interval for 24 hrs by real time cell analysis; type: functional, cell-based
PANC-1 [12] = experiment: Induction of autophagy in human PANC1 cells assessed as increase in LC3-1 expression after 3 hrs under nutrient deprived medium by Western blot analysis; type: functional, cell-based
PANC-1 [13] = experiment: Antiausteritic activity against human PANC1 cells assessed as alterations in cell morphology at 50 uM under nutrient-deprived medium measured at 5 mins interval for 2 hrs by live cell imaging analysis; type: functional, cell-based
PANC-1 [14] = experiment: Induction of morphological changes in human PANC1 cells assessed as increase in dead cells after 24 hrs by Hoechst 33342/propidium iodide staining based inverted microscopic analysis; type: functional, cell-based
[15] = target: RAC-alpha serine/threonine-protein kinase (Homo sapiens) (UniProt P31749); experiment: Inhibition of AKT in human PANC1 cells assessed as reduction in mTOR phosphorylation at Ser2448 residue at 50 uM measured after 3 hrs under nutrient deprived condition by Western blot analysis; type: cell-based
PANC-1 [16] = experiment: Antiausteritic activity against human PANC1 cells assessed as decrease in cell index under nutrient-deprived medium measured at 15 secs interval for 24 hrs by real time cell analysis; type: functional, cell-based

RAC-alpha serine/threonine-protein kinase (Homo sapiens), sequence (P31749 whole entry): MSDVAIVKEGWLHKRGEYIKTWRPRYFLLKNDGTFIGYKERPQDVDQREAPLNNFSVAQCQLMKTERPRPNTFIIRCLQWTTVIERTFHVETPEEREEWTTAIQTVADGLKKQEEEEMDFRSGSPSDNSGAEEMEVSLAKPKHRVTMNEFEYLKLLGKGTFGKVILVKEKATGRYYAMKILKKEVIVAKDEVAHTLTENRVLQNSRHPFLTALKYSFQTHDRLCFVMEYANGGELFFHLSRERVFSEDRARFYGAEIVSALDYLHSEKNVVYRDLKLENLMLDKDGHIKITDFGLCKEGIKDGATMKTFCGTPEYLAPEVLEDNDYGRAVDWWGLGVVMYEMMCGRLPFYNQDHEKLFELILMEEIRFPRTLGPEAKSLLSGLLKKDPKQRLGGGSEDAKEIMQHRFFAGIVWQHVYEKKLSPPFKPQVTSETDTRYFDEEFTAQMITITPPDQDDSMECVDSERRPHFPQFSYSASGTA

**Q.** With `C/C1=C/C(=O)CC[C@@](C)(O)CC[C@@H](C(C)C)C1=O` as the compound, how does the PC50 (PSN1) read?
**A.** Its PC50 is 67.7 µM.

**Q.** What about the PC50 [1] of the same compound?
**A.** The PC50 was 98.1 µM.

**Q.** And the PC50 (PANC-1 [2])?
**A.** The PC50 was greater than 100 µM.

**Q.** And the PC50 (MIA PaCa-2)?
**A.** Its PC50 is greater than 100 µM.

**Q.** What about the PC50 (CAPAN-1) of the same compound?
**A.** Its PC50 is greater than 100 µM.

**Q.** What does the source list for `COc1cc(C[C@H]2C(=O)OC[C@@H]2Cc2ccc(OC)c(OC)c2)ccc1O` [ARCTIGENIN]?
**A.** PC50 (PSN1): 0.7 µM; PC50 [1]: 0.8 µM; PC50 (PANC-1 [2]): 0.5 µM; PC50 (MIA PaCa-2): 1.9 µM; PC50 (CAPAN-1): 1.2 µM

**Q.** With `CC1=C[C@@H]2[C@@H](CC1=O)[C@@](C)(O)CC[C@H]2C(C)C` as the compound, how does the PC50 (PSN1) read?
**A.** The PC50 was greater than 100 µM.

**Q.** And the PC50 [1]?
**A.** Its PC50 is greater than 100 µM.

**Q.** What about the PC50 (PANC-1 [2]) of the same compound?
**A.** Its PC50 is greater than 100 µM.

**Q.** And the PC50 (MIA PaCa-2)?
**A.** Its PC50 is greater than 100 µM.

**Q.** And the PC50 (CAPAN-1)?
**A.** Its PC50 is greater than 100 µM.

**Q.** Which PC50 (PSN1) does the source give for `CC(C)[C@@H]1CC[C@@](C)(O)[C@@H]2CCC(CO)=C[C@H]21` here?
**A.** Its PC50 is greater than 100 µM.

**Q.** And the PC50 [1]?
**A.** The PC50 was 95.3 µM.

**Q.** What about the PC50 (PANC-1 [2]) of the same compound?
**A.** Its PC50 is greater than 100 µM.

**Q.** And the PC50 (MIA PaCa-2)?
**A.** The PC50 was greater than 100 µM.

**Q.** And the PC50 (CAPAN-1)?
**A.** The PC50 was greater than 100 µM.

**Q.** Which results are given for `CC1=C[C@@H]2[C@@H](CC1)[C@](C)(O)CC[C@H]2C(C)C`?
**A.** PC50 (PSN1): >100 µM; PC50 [1]: 69.7 µM; PC50 (PANC-1 [2]): 46 µM; PC50 (MIA PaCa-2): 49.1 µM; PC50 (CAPAN-1): >100 µM

**Q.** Which results are given for `CC(C)[C@@H]1CC[C@](C)(O)[C@@H]2CCC(CO)=C[C@H]21`?
**A.** PC50 (PSN1): 50.6 µM; PC50 [1]: 77.2 µM; PC50 (PANC-1 [2]): 82.1 µM; PC50 (MIA PaCa-2): 29.8 µM; PC50 (CAPAN-1): >100 µM

**Q.** Which inhibition [3] does the source give for `CC1=C[C@@H]2[C@@H](CC1)[C@@](C)(O)CC[C@H]2C(C)C` [T-CADINOL] here?
**A.** Its inhibition is “Dose-dependent effect”.

**Q.** And the Activity (PANC-1 [4])?
**A.** Its Activity is “Dose-dependent effect”.

**Q.** What about the Activity (PANC-1 [5]) of the same compound?
**A.** The Activity was “Active”.

**Q.** What about the PC50 [1] of the same compound?
**A.** Its PC50 is 45.1 µM.

**Q.** What about the Activity (PANC-1 [6]) of the same compound?
**A.** The Activity was “Active”.

**Q.** What about the Activity (PANC-1 [7]) of the same compound?
**A.** Its Activity is “Active”.

**Q.** And the inhibition [8]?
**A.** Its inhibition is “Active”.

**Q.** And the Activity (PANC-1 [9])?
**A.** Its Activity is “Dose-dependent effect”.

**Q.** And the Activity (PANC-1 [10])?
**A.** The Activity was “Active”.

**Q.** What about the Activity (PANC-1 [11]) of the same compound?
**A.** The Activity was “Active”.

**Q.** What about the Activity (PANC-1 [12]) of the same compound?
**A.** Its Activity is “Dose-dependent effect”.

**Q.** And the Activity (PANC-1 [13])?
**A.** Its Activity is “Active”.

**Q.** And the Activity (PANC-1 [14])?
**A.** The Activity was “Dose-dependent effect”.

**Q.** And the inhibition [15]?
**A.** Its inhibition is 100%.

**Q.** What about the Activity (PANC-1 [16]) of the same compound?
**A.** Its Activity is “Dose-dependent effect”.

**Q.** Which results are given for `CC(=O)OCC1=C[C@@H]2[C@@H](CC1)[C@@](C)(O)CC[C@H]2C(C)C`?
**A.** PC50 (PSN1): >100 µM; PC50 [1]: 69 µM; PC50 (MIA PaCa-2): 35.7 µM; PC50 (CAPAN-1): >100 µM

**Q.** For `O=C1OC[C@H](Cc2ccc3c(c2)OCO3)[C@H]1Cc1ccc2c(c1)OCO2` [HINOKININ], which PC50 (PSN1) is on record?
**A.** The PC50 was 60.1 µM.

**Q.** What about the PC50 [1] of the same compound?
**A.** The PC50 was 92.5 µM.

**Q.** And the PC50 (PANC-1 [2])?
**A.** The PC50 was 64.1 µM.

**Q.** And the PC50 (MIA PaCa-2)?
**A.** The PC50 was 21.3 µM.

**Q.** And the PC50 (CAPAN-1)?
**A.** The PC50 was 50.1 µM.
